Data as given in ChEMBL document CHEMBL3997802, “Design, Synthesis, and Evaluation of Isaindigotone Derivatives To Downregulate c-myc Transcription via Disrupting the Interaction of NM23-H2 with G-Quadruplex” (J Med Chem, 2017).
The source made the active and inactive calls. The rule behind the calls is not given here.

Key:
[1] = Effect on NM23-H2 protein expression in mouse primary mesangial cells up to 2.2 uM by Western blot method; type: ADME, cell-based; conditions: primary mesangial cell
[2] = Growth inhibition of mouse primary mesangial cells at 0.25 to 1 times cytotoxic IC50 after 100 hrs by real time cellular analysis; type: cell-based; conditions: primary mesangial cell
[3] = Transrepression of c-Myc Pu43 G-quadruplex DNA (unknown origin) expressed in human SiHa cells at 2.2 uM after 48 hrs by luciferase reporter gene assay relative to control; type: cell-based
[4] = organism: Homo sapiens; assay: Inhibition of NM23-H2 binding to c-Myc G-quadruplex DNA in human SiHa cells assessed as effect on BRCA1 protein expression by Western blot method; type: cell-based
[5] = organism: Homo sapiens; assay: Inhibition of NM23-H2 binding to c-Myc G-quadruplex DNA in human SiHa cells assessed as effect on cyclin D3 protein expression by Western blot method; type: cell-based
[6] = organism: Homo sapiens; assay: Inhibition of NM23-H2 binding to c-Myc G-quadruplex DNA in human SiHa cells assessed as effect on cleaved caspase-3 protein expression by Western blot method; type: cell-based
[7] = Inhibition of 5'-biotin-labeled c-Myc Pu18 G-quadruplex DNA (unknown origin) interaction with His-tagged NM23-H2 assessed as ratio of Kd for NM23-H2-DNA complex in presence of compound to Kd for […]-DNA complex in absence of compound at 20 uM preincubated with NM23-H2 for 1 hr followed by addition of DNA measured after overnight incubation by ELISA
[8] = Transrepression of c-Myc Pu43 G-quadruplex DNA (unknown origin) expressed in human SiHa cells at 1.65 uM after 48 hrs by luciferase reporter gene assay relative to control; type: cell-based
[9] = organism: Homo sapiens; assay: Inhibition of NM23-H2 binding to c-Myc G-quadruplex DNA in human SiHa cells assessed as effect on cleaved PARP protein expression by Western blot method; type: cell-based
[10] = Stabilization of 5'-FAM/3'-TAMRA labeled c-Myc Pu18 G-quadruplex DNA (unknown origin) assessed as change in melting temperature at 1 uM after overnight incubation by FRET assay
[11] = Transrepression of c-Myc Pu43 G-quadruplex DNA (unknown origin) expressed in human SiHa cells at 1.1 uM after 48 hrs by luciferase reporter gene assay relative to control; type: cell-based
[12] = tested on: SiHa; assay: Inhibition of colony formation in human SiHa cells up to 1.1 uM after 7 days by crystal violet staining based assay; type: functional, cell-based
[13] = organism: Homo sapiens; assay: Inhibition of NM23-H2 binding to c-Myc G-quadruplex DNA in human SiHa cells assessed as downregulation of c-Myc protein expression at 0.5 times cytotoxic IC50 after 4 days by Western blot method; type: cell-based
[14] = tested on: SiHa; assay: Effect on NM23-H2 protein expression in human SiHa cells up to 2.2 uM after 4 days by Western blot method; type: functional, cell-based
[15] = Induction of G-quadruplex formation in wild type c-Myc Pu43 DNA (unknown origin) in pH 7.4 Tris HCl at 25 uM after overnight incubation in absence of Kcl by CD spectroscopic analysis
[16] = Effect on CDK6 protein expression in mouse primary mesangial cells up to 2.2 uM by Western blot method; type: ADME, cell-based; conditions: primary mesangial cell
[17] = Effect on BRCA1 protein expression in mouse primary mesangial cells up to 2.2 uM by Western blot method; type: ADME, cell-based; conditions: primary mesangial cell
[18] = organism: Homo sapiens; assay: Inhibition of NM23-H2 binding to c-Myc G-quadruplex DNA in human SiHa cells assessed as effect on p15 protein expression by Western blot method; type: cell-based
[19] = tested on: SiHa; assay: Effect on NM23-H2 mRNA level in human SiHa cells up to 2.2 uM after 4 days by RT-PCR method; type: functional, cell-based
[20] = organism: Homo sapiens; assay: Inhibition of NM23-H2 binding to c-Myc promoter DNA in human SiHa cell nuclear extract after 4 days by ChIP analysis
[21] = tested on: SiHa; assay: Cytotoxicity against human SiHa cells assessed as reduction in cell viability up to 2.2 uM after 48 hrs by MTT assay; type: cell-based
[22] = organism: Homo sapiens; assay: Inhibition of NM23-H2 binding to c-Myc G-quadruplex DNA in human SiHa cells assessed as effect on p27Kip1 protein expression by Western blot method; type: cell-based
[23] = organism: Homo sapiens; assay: Inhibition of NM23-H2 binding to c-Myc G-quadruplex DNA in human SiHa cells assessed as downregulation of c-Myc mRNA level after 4 days by RT-PCR method; type: cell-based
[24] = Effect on c-Myc protein expression in mouse primary mesangial cells up to 2.2 uM by Western blot method; type: ADME, cell-based; conditions: primary mesangial cell
[25] = organism: Homo sapiens; assay: Inhibition of NM23-H2 binding to c-Myc G-quadruplex DNA in human SiHa cells assessed as effect on phosphorylated p53 protein expression by Western blot method; type: cell-based
[26] = biological target: Cellular tumor antigen p53 (Mus musculus, UniProt P02340); assay: Effect on p53 phosphorylation in mouse primary mesangial cells up to 2.2 uM by Western blot method; type: ADME
[27] = Transrepression of c-Myc MUT Pu43 DNA (unknown origin) expressed in human SiHa cells up to 2.2 uM after 48 hrs by luciferase reporter gene assay relative to control; type: cell-based
[28] = tested on: SiHa; assay: Growth inhibition of human SiHa cells after 40 hrs by real time cellular analysis; type: functional, cell-based
[29] = Effect on cleaved caspase-3 protein expression in mouse primary mesangial cells up to 2.2 uM by Western blot method; type: ADME, cell-based; conditions: primary mesangial cell
[30] = Inhibition of thiazole orange binding to c-Myc Pu27 G-quadruplex DNA (unknown origin) at 10 uM after 30 secs by fluorescence spectrophotometric method
[31] = Transrepression of c-Myc Pu43 G-quadruplex DNA (unknown origin) expressed in human SiHa cells after 48 hrs by luciferase reporter gene assay; type: cell-based
[32] = Inhibition of thiazole orange binding to c-Myc Pu18 G-quadruplex DNA (unknown origin) at 10 uM after 30 secs by fluorescence spectrophotometric method
[33] = organism: Homo sapiens; assay: Transrepression of c-Myc G-quadruplex DNA in human SiHa cells at 2.2 uM after 96 hrs by DAPI staining based immunofluoresence microscopic method; type: cell-based
[34] = tested on: SiHa; assay: Growth inhibition of human SiHa cells transfected with NM23-H2 siRNA up to 4.4 uM after 100 hrs by real time cellular analysis; type: functional, cell-based

Sequence of Cellular tumor antigen p53 (P02340 whole entry): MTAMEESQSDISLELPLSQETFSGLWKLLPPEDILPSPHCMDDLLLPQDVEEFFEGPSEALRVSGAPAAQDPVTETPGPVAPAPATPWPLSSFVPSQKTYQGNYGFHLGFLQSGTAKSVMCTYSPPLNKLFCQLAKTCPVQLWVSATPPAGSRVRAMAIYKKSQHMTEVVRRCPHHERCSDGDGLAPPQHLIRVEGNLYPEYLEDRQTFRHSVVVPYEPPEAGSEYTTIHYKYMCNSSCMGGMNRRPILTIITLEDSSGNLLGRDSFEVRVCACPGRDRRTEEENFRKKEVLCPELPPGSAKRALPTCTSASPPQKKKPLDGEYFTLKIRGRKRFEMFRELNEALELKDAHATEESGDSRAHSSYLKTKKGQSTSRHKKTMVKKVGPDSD

CCN(CC)CCNC(=O)c1ccc(/C=C2\CCn3c2nc2cc(NCCCN4CCCC4)c(F)cc2c3=O)cc1
Activity [1]: Non-Toxic
growth inhibition (GI) [2]: Non-Toxic
Activity [3]: 38%
inhibition [4]: Dose-dependent effect
inhibition [5]: Dose-dependent effect
inhibition [6]: Dose-dependent effect
Ratio [7]: 3.4
Activity [8]: 41.4%
inhibition [9]: Dose-dependent effect
ΔTm [10]: 12.9 °C
Activity [11]: 65.7%
inhibition [12]: Active
inhibition [13]: Active
Activity [14]: inactive
Activity [15]: Active
Activity [16]: Non-Toxic
Activity [17]: Non-Toxic
inhibition [18]: Dose-dependent effect
Activity [19]: inactive
inhibition [20]: Dose-dependent effect
Activity [21]: Non-Toxic
inhibition [22]: Dose-dependent effect
inhibition [23]: Dose-dependent effect
Activity [24]: Non-Toxic
inhibition [25]: Dose-dependent effect
Activity [26]: Non-Toxic
Activity [27]: inactive
growth inhibition (GI) [28]: Dose-dependent effect
Activity [29]: Non-Toxic
inhibition [30]: Active
Activity [31]: Dose-dependent effect
inhibition [32]: Active
Activity [33]: Active
growth inhibition (GI) [34]: inactive
